Test results published in patent US20160074390A1, “HUMAN DOSING OF PHOSPHATASE INHIBITOR” (Lixte Biotechnology, Inc., priority 2014, published 2016).
Several values for one entry are separate records, joined by “and”; a condition that tells them apart may be missing. Equal entries are not always repeated. Where two headings read alike, the source gives them in different places.

Tests used:
[1] = in vivo; conditions: beagle, dog, 0.15 mg/kg
[2] = Solubility and stability of LB-100 solution; assay type: physicochemical; conditions: for stability of formulation: in monosodium glutamate, pH 10.5
From the text: LB-100 is a water soluble enantiomeric zwitterion provided as a sterile solution for intravenous administration. […] Phosphate buffered saline (PBS) was used as the vehicle for LB-100 administration in preclinical efficacy studies and sodium bicarbonate 4.2% for injection was used as the vehicle for GLP toxicity studies.

[3] = test system: TNBC cell lines; assay: Cytotoxicity against TNBC cells; assay type: cell-based; conditions: single agent; present-tense example
Protocol: LB-100 inhibits PP2A activity and is cytotoxic to TNBC cells. LB-100 synergizes with chemotherapeutic drugs to enhance cytotoxicity against TNBC cells. LB-100 also enhances the effects of chemotherapy in TNBC xenografts. LB-100 chemosensitizes doxorubicin and cisplatin to TNBC cells and/or has a synergistic cytotoxic effect with doxorubicin and/or cisplatin against TNBC cells.
Both doxorubicin (0.2 μg/ml) and cisplatin (2 μg/ml) in combination with LB-100 are cytotoxic to TNBC cell lines. The addition of LB-100 sensitizes TNBC cells to doxorubicin and cisplatin. TNBC cell lines include HCC1599, HCC1937, HCC1599, MDA-MB-468, HCC38, HCC70, HCC1806, HCC1187, DU4475, BT-549, Hs-578T, MDA-MB-231, MDA-MB-436, MDA-MB-157, MDA-MB-453, BT-20, and HCC1395.

[4] = test system: male Fischer rats; assay: Non-GLP dose ranging toxicity study, daily IV infusion x4 days (NCI)
Protocol: (§1) In a non-GLP dose ranging study in male Fischer rats conducted by the NCI, LB-100 was administered by daily intravenous (IV) infusion at 0.5, 0.75 and 1.5 mg/kg/day for 4 consecutive days.

[5] = as above; conditions: male, Fischer, rat, in vivo, iv
Protocol: as §1

[6] = test system: advanced solid tumors; assay: Phase I Part 1 single agent LB-100: tumor response (RECIST 1.1); assay type: in vivo, human
From the text: Two dose regimens are explored.
Although response is not the primary endpoint of this study, patients with measurable disease will be assessed at baseline and during the study by standard criteria. Patients should be reevaluated after receiving 2 cycles of study therapy and then after every 2 cycles thereafter. In the event objective response (PR or CR) is noted, changes in tumor measurements must be confirmed by repeat assessments that should be performed at least 4 weeks after the criteria for response are first met.
Response and progression will be evaluated in this study using the international criteria (version 1.1) proposed by the Response Evaluation Criteria in Solid Tumors (RECIST) Committee [Eur J Cancer. 45 (2009) 228-247]. Changes in only the largest diameter (unidimensional measurement) of the tumor lesions are used in the RECIST 1.1 guidelines. Note: Lesions are either measurable or non-measurable using the criteria provided below.
• Complete Response (CR): Disappearance of all target lesions.
The patient's best overall response assignment will depend on findings of both target and non-target disease and will also take into consideration the appearance of new lesions. It is assumed that at each protocol-specified time point, a response assessment occurs. Table provides a summary of the overall response status calculation at each time point for patients who have measurable disease at baseline.
In the case of SD, follow-up measurements must have met the SD criteria at least once after study entry at a minimum interval at 5 weeks.

[7] = Toxicokinetics in GLP repeat-dose rat study; conditions: Sprague Dawley, in vivo, iv, 0.75 mg/kg/day, study Day 4
From the text: These changes were reversible. […] Inflammation was often accompanied by mesothelial hypertrophy.

[8] = test system: HeLa cells, OS-17, MKN28, MKN45, MGC803, and SGC7901 cells; assay: Growth of Mad2-overexpressing cell lines in vitro; assay type: cell-based, human; conditions: all cell lines; present-tense example
Protocol: Compound LB-100 inhibits PP2A phosphatase in cancer cells which in turn induces Mad-2 phosphorylation while suppressing Mad-2 protein levels. In order to characterize the effects of LB-100 on cancers overexpressing Mad2, tumor cell lines carrying Mad2-overexpressing mutations are tested. LB-100 inhibits the growth of the cancer cells in in vitro assays. […] Exposure to LB-100 reduces the expression of Mad-2 in the cells.
Mad2-overexpressing HeLa cells (HeLa Mad-2 O/E), osteosarcoma human cells (OS-17) and gastric cell lines (MKN28, MKN45, MGC803, and SGC7901) express high levels of Mad2 (Yu, L. et al. 2010). LB-100 inhibits the growth of the HeLa cells, OS-17, MKN28, MKN45, MGC803, and SGC7901 cells in vitro. […] Exposure to LB-100 reduces the expression of Mad-2 in all cell lines.

[9] = test system: beagle dogs; assay: Non-GLP dose ranging toxicity study, IV every 4 days x4 doses; assay type: in vivo, dog
[10] = test system: male and female beagle dogs; assay: GLP repeat dose toxicity study, IV daily x5 days
Protocol: In the GLP repeat dose dog study, LB-100 was administered by intravenous injection (slow bolus push) at dose levels of 0.15, 0.30, and 0.75 mg/kg daily for 5 consecutive days.
Multilead (I, II, III, aVR, aVL, aVF, and V2) ECGs were recorded for all animals prior to randomization (Day −8) and for all surviving animals on Day 4 (recorded approximately 2 to 4 hours following dose administration) and Day 27.
Blood pressure (systolic, diastolic, and mean arterial pressure) data were recorded for all animals once during the pretest period (Day −8) and for all surviving animals on study Day 4 (recorded approximately 2 to 4 hours following dose administration) and Day 27.

[11] = test system: human glioblastoma cell line, U373; conditions: simultaneous exposure, US 2010/0029683 A1; cited from earlier work
[12] = test system: male and female Sprague Dawley rats; assay: GLP repeat-dose toxicity study, daily IV slow bolus x5 days
[13] = test system: patients with advanced solid tumors; conditions: in vivo
Protocol: This is a Phase I, open label, multicenter, two-part, dose-escalation study of LB-100 administered intravenously in patients with advanced solid tumors. Two dose regimens are explored. In the first regimen (Part 1), single agent LB-100 is given daily on Days 1 through 3 of every 21 day cycle. In the second regimen (Part 2), docetaxel-naïve patients are treated with LB-100 given daily on Days 1 through 3 in combination with a fixed dose of docetaxel (either 60 mg/m^2 or 75 mg/m^2) given on Day 2 of every 21 day cycle. Once the MTD of single agent LB-100 is reached, 3 additional patients are enrolled in an MTD confirmation cohort. Part 2 enrolls patients once the MTD of single agent LB-100 is determined in Part 1.
The starting dose of L8-100 for Part 1 is 0.25 mg/m^2. The starting dose of LB-100 for Part 2 is 2 dose levels below the MTD determined in Part 1, administered in combination with docetaxel 60 mg/m^2. Once the MTD of LB-100+docetaxel 60 mg/m^2 is determined, the dose of LB-100 is reduced 2 dose levels and administered in combination with docetaxel 75 mg/m^2. The dose of LB-100 is then be escalated to the full LB-100 dose (of the LB-100+docetaxel 60 mg/m^2 MTD) and administered in combination with docetaxel 75 mg/m^2. Once the MTD of the combination of LB-100+docetaxel (either 60 mg/m^2 or 75 mg/m^2) is reached, 3 additional patients are enrolled in an MTD/RD confirmation cohort.
LB-100 is administered in escalating dose levels. Enrollment in each dose cohort proceeds in the standard “3+3” schema. In each cohort, the first patient enrolled completes Cycle 1 treatment and safety monitoring prior to the enrollment of the second and third patients; the second and third patients may be enrolled simultaneously. DLTs are evaluated and recorded during the first 2 cycles of treatment.
Initially, the decision to escalate to the next dose level is be based on the observation of DLT during Cycle 1. If no DLT is observed, escalation proceeds to the next cohort. If a DLT is observed in Cycle 2 in the study, the escalation strategy is evaluated moving forward. Escalation continues until the maximum administered dose (MAD), maximum tolerated dose (MTD) and recommended dose (RD) are determined.
On Days 1, 2 and 3 of each cycle, LB-100 was infused over 15 minutes.
LB-100 was administered daily on Days 1 through 3 of every 21 day cycle to patients at the following dose levels:
Enrollment in each dose cohort will proceed in the standard “3+3” schema where 3 patients are initially enrolled per cohort; Scheme 2. In each cohort, the first patient enrolled will complete Cycle 1 treatment and safety monitoring prior to the enrollment of the second and third patients; the second and third patients may be enrolled simultaneously. Dose limiting toxicities (DLTs) will be evaluated and recorded during the first 2 cycles of treatment. Initially, the decision to escalate to the next dose level will be based on the observation of DLT during Cycle 1. If no DLT is observed, escalation will proceed to the next cohort. Note: if a DLT is observed in Cycle 2 in the study, the escalation strategy will be evaluated moving forward. If, however, DLT is observed in 1 of the 3 patients, an additional 3 patients must be enrolled at that dose. In a cohort of 6, if one patient has DLT, then dose escalation may proceed; if 2 or more patients have DLT, then that dose will be considered the maximum administered dose (MAD) and dose escalation will cease. The MTD is defined as one dose level below the MAD. Once the MTD of single agent LB-100 is reached, 3 additional patients will be enrolled in an MTD confirmation cohort. At least 6 patients must be treated at the MTD to determine the safety of that dose as a basis for the starting dose of LB-100 in Part 2 of this study.
The NCI Common Terminology Criteria for Adverse Events (CTCAE) Version 4.0 will be used to grade toxicity.

[14] = test system: Akt; conditions: Lu et al. 2009; cited from earlier work

Compound: CN1CCN(C(=O)C2C(C(=O)O)[C@H]3CC[C@@H]2O3)CC1 (mixture of isomers) [LB-100, 3-(4methylpiperazine-carbonyl)-7-oxalobicyclo[2.2.1]heptane-2-carboxylic acid]
- AUC(0-t) ([1]; female): 0.335 µg·h/mL
- AUC(0-t) ([1]; male): 0.267 µg·h/mL
- water solubility ([2]; enantiomeric zwitterion): water soluble
- stability of formulation ([2]; refrigerated temperatures): at least 8 hours
- stability of formulation ([2]; −20° C.): stable for months
- racemization of separated enantiomers ([2]; in solution): racemize rapidly
- cytotoxicity to TNBC cells [3]: cytotoxic
- nephrosis severity ([4]; 0.75 mg/kg/day): mild
- no-observed-adverse-effect-level (NOAEL) ([4]; 0.5, 0.75 and 1.5 mg/kg/day x4 days): not established
- heart toxicity ([4]; 0.75 and 1.5 mg/kg/day groups): epicardial hyperplasia with inflammation primarily on the epicardium of the atria
- MTD ([4]; IV daily for 4 days, converted dose): about 4.5 mg/m^2
- unscheduled deaths ([4]; any treatment group): no unscheduled deaths
- dose-limiting toxicities ([4]; rat, in vivo, iv): Kidney, heart, femoral bone, liver and urinary bladder toxicity
- MTD at 4 days [5]: 0.75 mg/kg/day
- duration of stable disease ([6]; Patient 10, pancreatic cancer, 0.83 mg/m^2): 39 weeks
- time remained stable since starting LB-100 ([6]; Patient 10, pancreatic cancer, interim (8 cycles)): 6 months
- cycles on treatment with stable disease ([6]; Patient 17, metastatic thymoma, DL5 1.75 mg/m^2): 7 cycles and 8 cycles
- cycles of stable disease ([6]; breast, ovarian, carcinoid and testicular cancer patients): 4-6 cycles
- AUC(0-t) ([7]; female, females): 0.691 µg·h/mL
- C0 ([7]; female, females): 2.35 µg/mL
- AUC(0-t) ([7]; male, males): 0.596 µg·h/mL
- C0 ([7]; male, males): 1.8 µg/mL
- cytotoxicity [8]: Dose-dependent cytotoxicity
- possible test article-related clinical observation ([9]; 1.0 mg/kg, one female, study Day 13): intermittent tremors
- survival ([9]; 0.1-1.0 mg/kg): no LB-100-related effects on survival
- body weight gain and food consumption ([9]; 0.5 and 1.0 mg/kg, females): lower body weight gains and food consumption
- no-observed-effect level (NOEL) ([9]; IV every 4 days x4 doses): 0.25 mg/kg
- signs of toxicity ([9]; dog, in vivo, 1 mg/kg): almost no signs of toxicity
- tolerability ([10]; 0.15 mg/kg/day): well tolerated
- test article-related lethality, animals ([10]; 0.75 mg/kg/day group, before fourth dose): 2 of 10
- Highest Non-Severely Toxic Dose (HNSTD) ([10]; daily IV x5 days): 0.15 mg/kg
- ECGs ([10]; dog, in vivo): within normal limits
- blood pressure ([10]; dog, in vivo): unaffected
- cytotoxic effect of cisplatin [11]: enhanced
- cytotoxic effect of doxorubicin [11]: enhanced
- cytotoxic effect of taxol [11]: enhanced
- cytotoxic effect of temozolomide [11]: enhanced
- epicardium and subepicardium of atria ([12]; 0.5, 0.75, 1.25 mg/kg/day males, 1.25 mg/kg/day females): Minimal to mild subacute inflammation
- kidney finding ([12]; 0.75 and 1.25 mg/kg/day, males and females): adverse, test article-related nephrosis of the kidneys
- test article-related effects on urinalysis parameters ([12]; Day 5, reversible): observed in all treatment groups
- severely toxic dose in 10% of the animals (STD 10) ([12]; daily IV x5 days): 0.75 mg/kg/day
- adverse events ([13]; human): No adverse events attributable to LB-100
- dyspnea ([13]; human): grade 1
- tolerability ([13]; human): without any symptoms attributable to LB-100
- vomiting, related to LB-100 ([13]; human): grade 3
- adverse events attributed to a bleeding rectal mass ([13]; human, 1 cycle): grade 3 anemia and grade 2 weakness
- neuropathy, possibly related to LB-100 ([13]; human, 4 cycles): Grade 1
- adverse events [13]: No new adverse events
- dose limiting toxicity [13]: no dose limiting toxicity
- relation of pulmonary embolism to treatment [13]: not related

Compound: CCN1CCCC1CNC(=O)c1cc(S(=O)(=O)CC)c(NC)cc1OC (stereo not drawn) [LB-102]
- phosphorylation of Akt [14]: increased
